According to article PMC2580772, “The dual transcriptional regulator CysR in Corynebacterium glutamicum ATCC 13032 controls a subset of genes of the McbR regulon in response to the availability of sulphide acceptor molecules” (BMC Genomics, 2008):

Molecular target: T1, CysR (Corynebacterium glutamicum, UniProt Q8NU28)
T1 construct: gene Cgl0121; expressed in E. coli ER2566 from pTYB1 (pCR050)
T1 sequence (Q8NU28 1-381): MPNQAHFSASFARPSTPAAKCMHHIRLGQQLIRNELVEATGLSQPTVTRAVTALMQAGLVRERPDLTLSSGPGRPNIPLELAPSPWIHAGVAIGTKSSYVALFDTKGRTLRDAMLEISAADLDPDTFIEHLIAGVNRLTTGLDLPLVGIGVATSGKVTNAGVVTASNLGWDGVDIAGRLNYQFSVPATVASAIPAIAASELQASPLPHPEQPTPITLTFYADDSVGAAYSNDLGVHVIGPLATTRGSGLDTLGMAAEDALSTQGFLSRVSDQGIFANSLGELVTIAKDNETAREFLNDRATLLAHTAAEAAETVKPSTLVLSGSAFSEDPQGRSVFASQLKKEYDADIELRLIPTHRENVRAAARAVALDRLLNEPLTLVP
Experiment: EMSA, effector-dependent DNA binding
Details: 10 mM effector; Cy3-labelled 523 bp cysI-fpr2 DNA; 1,000 times molar excess of protein; pH 7.5; room temperature; co-activator

| SMILES | EMSA, effector-dependent DNA binding |
| --- | --- |
| CC(=O)OCC[C@H](N)C(=O)O [OAH, O-acetyl-L-homoserine] | CysR can only bind if either OAS or OAH is added to the assay |
| CC(=O)OC[C@H](N)C(=O)O [OAS, O-acetyl-L-serine] | CysR can only bind if either OAS or OAH is added to the assay |
